Experimental data from patent publication US8143259B2, “Cold menthol receptor antagonists” (Janssen Pharmaceutica, NV, priority 2008, dated 2012).
Several values for one entry are separate records, joined by “and”; a condition that tells them apart may be missing. Equal values may be shown once.

Molecular target: T1, canine TRPM8 (Canis lupus familiaris, UniProt Q1A7N1)
T1 construct: expressed in transfected cells
Test: In Vitro Canine TRPM8 Functional Assay (Ca2+ fluorescence, icilin activation)
Assay type: cell-based
Details: for inhibition at 0.5 µM: HEK293, 0.5 μM compound; for inhibition at 0.5 µM / % Inh @ 0.5 μM / % Inh @ 0.2 μM / inhibition at 1 µM / inhibition at 0.2 µM / % Inh @ 1 μM: canine TRPM8 HEK293, icilin; for IC50: HEK293 cells stably expressing canine TRPM8, icilin activation, Ca2+ fluorescence; for % Inh @ 0.5 μM: 0.5 μM compound; for % Inh @ 0.2 μM: 0.2 μM compound; for inhibition at 1 µM: HEK293, 1 μM compound; for inhibition at 0.2 µM: HEK293, 0.2 μM compound; for % Inh @ 1 μM: 1 μM compound
In short: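 HEK293 cells stably expressing canine TRPM8, loaded with Calcium 3 dye; compounds added 5 min before icilin at a concentration giving ~80% maximal response. Peak icilin-evoked Ca2+ fluorescence, basal-subtracted and normalised to maximal response, fitted by sigmoidal nonlinear regression; quadruplicate wells.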

T1 sequence (Q1A7N1 1-1104): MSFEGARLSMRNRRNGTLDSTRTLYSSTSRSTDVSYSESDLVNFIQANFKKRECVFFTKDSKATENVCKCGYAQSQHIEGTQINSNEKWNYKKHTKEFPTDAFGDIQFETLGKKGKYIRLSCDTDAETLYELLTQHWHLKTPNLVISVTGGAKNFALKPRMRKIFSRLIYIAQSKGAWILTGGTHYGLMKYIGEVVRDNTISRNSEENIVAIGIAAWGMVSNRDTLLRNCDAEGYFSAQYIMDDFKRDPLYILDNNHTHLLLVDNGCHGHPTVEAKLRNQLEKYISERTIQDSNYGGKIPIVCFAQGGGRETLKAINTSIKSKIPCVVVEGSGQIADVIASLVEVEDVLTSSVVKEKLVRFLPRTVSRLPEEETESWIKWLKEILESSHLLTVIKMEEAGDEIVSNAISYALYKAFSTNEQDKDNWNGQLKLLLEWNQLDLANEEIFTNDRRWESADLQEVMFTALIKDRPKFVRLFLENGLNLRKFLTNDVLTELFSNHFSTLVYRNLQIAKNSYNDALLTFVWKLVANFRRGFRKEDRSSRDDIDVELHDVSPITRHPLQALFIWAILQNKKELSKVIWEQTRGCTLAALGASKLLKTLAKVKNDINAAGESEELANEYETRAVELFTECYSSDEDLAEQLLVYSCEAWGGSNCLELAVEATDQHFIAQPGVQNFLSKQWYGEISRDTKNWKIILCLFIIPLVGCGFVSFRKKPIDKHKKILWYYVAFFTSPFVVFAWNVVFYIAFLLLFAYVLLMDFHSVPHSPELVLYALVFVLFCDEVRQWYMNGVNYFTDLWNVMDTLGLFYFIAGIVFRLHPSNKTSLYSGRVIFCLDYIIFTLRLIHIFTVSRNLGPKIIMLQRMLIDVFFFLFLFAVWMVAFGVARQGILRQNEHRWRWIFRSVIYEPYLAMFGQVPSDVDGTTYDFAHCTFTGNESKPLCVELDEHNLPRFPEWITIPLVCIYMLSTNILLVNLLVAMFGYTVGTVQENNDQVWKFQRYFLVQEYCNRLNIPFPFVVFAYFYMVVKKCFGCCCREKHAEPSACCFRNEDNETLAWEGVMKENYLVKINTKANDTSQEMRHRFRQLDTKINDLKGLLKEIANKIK

Row | IC50 | inhibition at 0.2 µM [%] | Compound | also measured
1 | 47.5 nM | – | O=C(C(Nc1ccc(F)cc1)c1ccc(Cl)cc1)N1CCCC1c1ccccc1F (centres unmarked) [Cpd 117] | inhibition at 0.5 µM: 101%
2 | – | – | O=C(C(Nc1ccc(Cl)cc1)c1ccc(C(F)(F)F)cc1)N1CCc2ccccc21 (racemic) [Cpd 39] | % Inh @ 0.5 μM: 73.007%
3 | 111 nM | – | O=C(C(Nc1ccc(F)cc1F)c1ccc(Cl)cc1)N1Cc2ccccc2C1 (centres unmarked) [Cpd 126] | inhibition at 0.5 µM: 100%
4 | – | – | COC(=O)[C@@H]1CC[C@H](c2ccccc2)N1C(=O)C(Nc1c(F)cccc1F)c1ccc(Br)cc1 (single isomer, unassigned) [Cpd 205] | % Inh @ 0.2 μM (0.2 µM): 62%
5 | 60.3 nM | – | O=C(C(Nc1ccccc1)c1ccc(C(F)(F)F)cc1)N1CCCC1c1ccccc1 (centres unmarked) [Cpd 17] | inhibition at 1 µM: 98.2%
6 | 7 nM | 100 | O=C(C(Nc1ccccc1F)c1ccc(N2CCOCC2)nc1)N1CCCC1c1ccccc1F (centres unmarked) [Cpd 359] | –
7 | 160 nM | 70 | O=C(N1CCCC1c1ccccc1)C1(c2ccc(C(F)(F)F)cc2)CCc2ccccc2N1 (centres unmarked) [Cpd 194, (2-Phenyl-pyrrolidin-1-yl)-[2-(4-trifluoromethyl-phenyl)-1,2,3,4-tetrahydro-quinolin-2-yl]-methanone] | –
8 | 22 nM and 27 nM | 92 | O=C(C(Nc1ccccc1F)c1ccc(-c2ccncc2)cc1)N1CCCC1c1ccccc1F (centres unmarked) [Cpd 294] | % Inh @ 0.2 μM (0.2 µM): 102%
9 | – | – | O=C(C(Nc1ccccc1F)c1ccc(N2CCOCC2)nc1)N1CCCC1c1ccccc1F (single isomer, unassigned) [Cpd 360] | % Inh @ 0.2 μM (0.2 µM): 43%
10 | 6 nM | 101 | O=C(C(Nc1ccccc1F)c1cc2ccccc2s1)N1CCCC1c1ccccn1 (single isomer, unassigned) [Cpd 330] | –
11 | 257 nM | – | CC(C)(C)c1ccc(C(Nc2ccccc2)C(=O)N2CCc3ccccc32)cc1 (centres unmarked) [Cpd 15] | inhibition at 1 µM: 94.8%
12 | 53.8 nM | – | CC(C)(C)c1ccc(C(Nc2ccccc2)C(=O)N2CCCC2c2ccncc2)cc1 (centres unmarked) [Cpd 53] | inhibition at 0.5 µM: 99%
13 | 22 nM and 25 nM | 100 | O=C(C(Nc1ccccc1F)c1ccc(C(F)(F)F)cc1)N1Cc2ccccc2C1 (centres unmarked) [Cpd 64] | inhibition at 0.5 µM: 102%
14 | 99.5 nM | – | CC(C)(C)c1ccc(C(Nc2ccccc2)C(=O)N2CCCC2c2cccnc2)cc1 (centres unmarked) [Cpd 5] | inhibition at 1 µM: 102%
15 | 104 nM | – | O=C(C(Nc1ccccc1F)c1ccc(C(F)(F)F)cc1)N1CCCC1c1ccccc1F (single isomer, unassigned) [Cpd 154] | % Inh @ 0.5 μM (0.5 µM): 97.552%
16 | 18.1 nM | – | O=C(C(Nc1ccccc1F)c1ccc(Cl)cc1)N1CCCC1c1ccccc1 (centres unmarked) [Cpd 112] | inhibition at 0.5 µM: 96%
17 | 26.5 nM | 100 | O=C(C(Nc1cc(F)ccc1F)c1ccc(Cl)cc1)N1CCCC1c1ccccc1F (centres unmarked) [Cpd 170] | –
18 | 44 nM | – | O=C(C(Nc1ccccc1F)c1ccc(C(F)(F)F)cc1)N1CCCC1c1ccccc1F (mixture of isomers) [Cpd 153] | % Inh @ 0.5 μM (0.5 µM): 99.694%
19 | 36 nM | 91 | O=C(C(Nc1ccccc1F)c1ccc(Cl)cc1)N1CCCc2ccccc21 (centres unmarked) [Cpd 364] | –
20 | 68 nM | 89 | O=C(C(Nc1c(F)cccc1F)c1ccc(CO)cc1)N1CCC[C@H]1c1ccccc1F (stereo partly drawn) [Cpd 219, 2-(2,6-Difluoro-phenylamino)-1-[(2S)-2-(2-fluoro-phenyl)-pyrrolidin-1-yl]-2-(4-hydroxymethyl-phenyl)-ethanone] | –
21 | 47 nM | 90 | O=C(O)c1ccc(-c2ccc(C(Nc3ccccc3F)C(=O)N3CCCC3c3ccccc3F)cc2)cc1 (centres unmarked) [Cpd 295, 4′-{1-(2-Fluoro-phenylamino)-2-[2-(2-fluoro-phenyl)-pyrrolidin-1-yl]-2-oxo-ethyl}-biphenyl-4-carboxylic acid] | –
22 | – | – | O=C(C(Nc1cccc(Cl)c1)c1ccc(C(F)(F)F)cc1)N1CCc2ccccc21 (racemic) [Cpd 38] | % Inh @ 0.5 μM: 63.009%
23 | 20.9 nM | – | O=C(C(Nc1ccccc1F)c1ccc(C(F)(F)F)cc1)N1CCCC1c1cccc(F)c1 (single isomer, unassigned) [Cpd 133] | inhibition at 0.5 µM: 98%
24 | 168 nM | – | O=C(C(Nc1ccccc1)c1ccc(C(F)(F)F)cc1)N1CCCC1c1ccccc1Cl (single isomer, unassigned) [Cpd 61] | % Inh @ 0.5 μM (0.5 µM): 103.2%
25 | 162 nM | – | O=C(C(Nc1cccc(F)c1F)c1ccc(Cl)cc1)N1CCCC1c1ccccc1Cl (single isomer, unassigned) [Cpd 165] | inhibition at 0.5 µM: 99%
26 | 19 nM | 97 | O=C(C(Nc1ccccc1F)c1ccc(C(F)(F)F)cc1)N1CCCC1c1ccncc1 (centres unmarked) [Cpd 197] | –

Row | IC50 | inhibition at 0.2 µM [%] | Compound | also measured
27 | 161 nM | – | CC(C)(C)c1ccc(C(Nc2ccccc2)C(=O)N2CCCC2c2cccc(Cl)c2)cc1 (single isomer, unassigned) [Cpd 9] | % Inh @ 1 μM (1 µM): 102.98%
28 | 4 nM and 9 nM | 88 | O=C(C(Nc1ccccc1F)c1ccc(-c2ccccn2)cc1)N1CCCC1c1ccccc1F (single isomer, unassigned) [Cpd 296] | % Inh @ 0.2 μM (0.2 µM): 96%
29 | 4 nM | 102 | O=C(C(Nc1ccccc1F)c1ccc(-c2ccccc2)nc1)N1CCC[C@H]1c1ccccc1F (single isomer, unassigned) [Cpd 307] | –
30 | 5 nM | 101 | O=C(C(Nc1ccccc1F)c1ccc(N2CCCCC2)nc1)N1CCC[C@H]1c1ccccc1F (mixture of isomers) [Cpd 334, 2-(2-Fluoro-phenylamino)-1-[(2S)-2-(2-fluoro-phenyl)-pyrrolidin-1-yl]-2-(3,4,5,6-tetrahydro-2H-[1,2′]bipyridinyl-5′-yl)-ethanone] | –
31 | 32 nM | 99 | O=C(C(Cc1ccccc1F)c1ccc(C(F)(F)F)cc1)N1CCCC1c1ccccc1F (centres unmarked) [Cpd 201, 3-(2-Fluoro-phenyl)-1-[2-(2-fluoro-phenyl)-pyrrolidin-1-yl]-2-(4-trifluoromethyl-phenyl)-propan-1-one] | –
32 | – | 47 | COC(=O)[C@@H]1CC[C@H](c2ccccc2)N1C(=O)C(Nc1c(F)cccc1F)c1ccc(Br)cc1 (single isomer, unassigned) [Cpd 204] | –
33 | 81 nM | – | O=C(C(Nc1ccccc1)c1ccc(Cl)cc1)N1Cc2ccccc2C1 (centres unmarked) [Cpd 87] | inhibition at 0.5 µM: 97%
34 | – | – | O=C(C(Nc1ccccc1F)c1ccc2ncccc2c1)N1CCCC1c1ccccc1Cl (single isomer, unassigned) [Cpd 315] | % Inh @ 0.2 μM: 49%
35 | 53.7 nM | – | O=C(C(Nc1ccccc1)c1ccc(Cl)cc1)N1[C@H](CO)CC[C@@H]1c1ccccc1 (single isomer, unassigned) [Cpd 235] | –
36 | 26 nM | 101 | COc1ccccc1[C@@H]1CCCN1C(=O)C(Nc1ccccc1F)c1ccc(N2CCCCC2)nc1 (mixture of isomers) [Cpd 335] | –
37 | – | – | CN1CCN(NC(=O)[C@H](Nc2ccccc2)c2ccc(C(C)(C)C)cc2)[C@H](c2ccccc2)C1 (relative stereo) [Cpd 56, (2RS*)-2-(4-tert-Butyl-phenyl)-N-[(2RS*)-4-methyl-2-phenyl-piperazin-1-yl]-2-phenylamino-acetamide] | % Inh @ 0.5 μM: 26%
38 | 25.4 nM | – | O=C(C(c1ccc(C(F)(F)F)cc1)N1CCc2ccccc21)N1CCCC1c1ccccc1F (centres unmarked) [Cpd 228] | –
39 | 5 nM | – | O=C(C(Nc1ccccc1F)c1ccc(C(F)(F)F)cc1)N1CCCC1c1ccccc1 (racemic) [Cpd 69] | inhibition at 0.5 µM: 102%
40 | 21.6 nM | – | O=C(C(Nc1ccccc1)c1ccc(C(F)(F)F)cc1)N1CCCC1c1ccccc1Cl (racemic) [Cpd 16] | inhibition at 1 µM: 103%
41 | 94 nM | 89 | O=C(C(Nc1ccccc1F)c1cnc2ccccc2c1)N1CCCC1c1ccccc1F (centres unmarked) [Cpd 281] | –
42 | 42 nM | 99 | O=C(O)c1ccc(-c2ccc(C(Nc3ccccc3F)C(=O)N3CCCC3c3ccccc3Cl)cc2)cc1 (centres unmarked) [Cpd 350] | –
43 | – | 53 | O=C(C(Nc1ccccc1F)c1ccc(-c2ccc(-c3nnn[nH]3)cc2)cc1)N1CCC[C@H]1c1ccccc1F (stereo partly drawn) [Cpd 354, 2-(2-Fluoro-phenylamino)-1-[(2S)-2-(2-fluoro-phenyl)-pyrrolidin-1-yl]-2-[4′-(1H-tetrazol-5-yl)-biphenyl-4-yl]-ethanone] | –
44 | 55.4 nM | – | O=C(C(Nc1ccccc1F)c1ccc(Cl)cc1)N1CCCC1c1ccccc1Cl (centres unmarked) [Cpd 110] | inhibition at 0.5 µM: 98%
45 | 432 nM | – | COc1ccc(C(Nc2sccc2C#N)C(=O)N2CCCC2c2ccccc2Cl)cc1 (centres unmarked) [Cpd 105] | inhibition at 0.5 µM: 88%
46 | – | – | CC(C)(C)c1ccc(C(Nc2ccccc2)C(=O)N2CCCC2Cc2ccccc2Cl)cc1 (mixture of isomers) [Cpd 6] | % Inh @ 1 μM: 45.171%
47 | 28 nM | – | COc1ccc(C(Nc2ccccc2)C(=O)N2CCCC2c2ccccc2Cl)cc1 (centres unmarked) [Cpd 66] | inhibition at 0.5 µM: 102%
48 | 74 nM | – | O=C(C(Nc1ccccc1)c1ccc(Br)cc1)N1Cc2ccccc2C1 (centres unmarked) [Cpd 71] | inhibition at 0.5 µM: 91%
49 | 22 nM | 100 | CN(C)c1cccc([C@H]2CCCN2C(=O)C(Nc2ccccc2F)c2ccc(C(F)(F)F)cc2)c1 (mixture of isomers) [Cpd 348] | –
50 | 17 nM | 101 | O=C(C(Nc1ccccc1F)c1ccc(-c2ccccn2)cc1)N1CCCC1c1ccccc1Cl (single isomer, unassigned) [Cpd 338] | –
51 | – | – | O=C(O)c1cccc(-c2ccc(C(Nc3ccccc3F)C(=O)N3CCCC3c3ccccc3F)cc2)c1 (mixture of isomers) [Cpd 310] | % Inh @ 0.2 μM: 41%
52 | 18 nM | – | O=C(C(Nc1ccccc1)c1ccc(Cl)cc1)N1CCCC1c1ccccc1F (centres unmarked) [Cpd 142] | inhibition at 0.5 µM: 97%
